Where two headings read alike, the source gives them in different places. One block for each compound: values may come before it.
How the values were obtained:
Assay in all cases: Ambit kinase profiling, competition binding
PRKCQ = biological target: T1, PRKCQ (Homo sapiens, UniProt Q04759)
T1 construct: purchased Ambit Biosciences (KINOMEscan)
Experimental: (§1) Also included in the kinase profile are four isoforms of PKC (δ, ε, η, θ) and eight isoforms of CAMKs (CAMKIα, δ, γ; CAMKIIα, β, δ, γ; CAMK4).
(§2) The global kinase profiling experiment was performed by Ambit Biosciences.

MEK6 = biological target: T2, MEK6 (Homo sapiens, UniProt P52564)
T2 construct: purchased Ambit Biosciences (KINOMEscan)
T2 sequence (P52564 1-334): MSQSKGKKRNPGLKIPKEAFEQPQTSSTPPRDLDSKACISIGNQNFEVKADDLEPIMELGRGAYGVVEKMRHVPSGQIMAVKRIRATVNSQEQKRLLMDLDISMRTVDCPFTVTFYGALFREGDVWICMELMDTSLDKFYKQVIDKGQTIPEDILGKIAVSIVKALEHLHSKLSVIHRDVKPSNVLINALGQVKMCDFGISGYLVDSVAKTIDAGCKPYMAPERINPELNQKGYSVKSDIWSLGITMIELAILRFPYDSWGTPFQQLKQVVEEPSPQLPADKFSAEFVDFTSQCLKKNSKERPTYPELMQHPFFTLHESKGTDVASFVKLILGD
Experimental: as §1, §2

p38-gamma = biological target: T3, p38-gamma (Homo sapiens, UniProt P53778)
T3 construct: purchased Ambit Biosciences (KINOMEscan)
T3 sequence (P53778 1-367): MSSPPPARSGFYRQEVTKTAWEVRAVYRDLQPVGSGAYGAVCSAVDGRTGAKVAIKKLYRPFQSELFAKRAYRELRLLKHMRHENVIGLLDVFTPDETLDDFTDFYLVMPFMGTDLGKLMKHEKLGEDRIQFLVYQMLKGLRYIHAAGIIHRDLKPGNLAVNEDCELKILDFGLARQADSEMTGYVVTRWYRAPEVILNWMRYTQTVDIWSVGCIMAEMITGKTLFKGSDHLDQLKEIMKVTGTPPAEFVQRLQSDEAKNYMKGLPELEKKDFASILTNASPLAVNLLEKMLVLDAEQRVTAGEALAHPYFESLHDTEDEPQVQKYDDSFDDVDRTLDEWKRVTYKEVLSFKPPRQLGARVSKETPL
Experimental: as §1, §2

LATS1 = biological target: T4, LATS1 (Homo sapiens, UniProt O95835)
T4 construct: purchased Ambit Biosciences (KINOMEscan)
T4 sequence (O95835 1-1130): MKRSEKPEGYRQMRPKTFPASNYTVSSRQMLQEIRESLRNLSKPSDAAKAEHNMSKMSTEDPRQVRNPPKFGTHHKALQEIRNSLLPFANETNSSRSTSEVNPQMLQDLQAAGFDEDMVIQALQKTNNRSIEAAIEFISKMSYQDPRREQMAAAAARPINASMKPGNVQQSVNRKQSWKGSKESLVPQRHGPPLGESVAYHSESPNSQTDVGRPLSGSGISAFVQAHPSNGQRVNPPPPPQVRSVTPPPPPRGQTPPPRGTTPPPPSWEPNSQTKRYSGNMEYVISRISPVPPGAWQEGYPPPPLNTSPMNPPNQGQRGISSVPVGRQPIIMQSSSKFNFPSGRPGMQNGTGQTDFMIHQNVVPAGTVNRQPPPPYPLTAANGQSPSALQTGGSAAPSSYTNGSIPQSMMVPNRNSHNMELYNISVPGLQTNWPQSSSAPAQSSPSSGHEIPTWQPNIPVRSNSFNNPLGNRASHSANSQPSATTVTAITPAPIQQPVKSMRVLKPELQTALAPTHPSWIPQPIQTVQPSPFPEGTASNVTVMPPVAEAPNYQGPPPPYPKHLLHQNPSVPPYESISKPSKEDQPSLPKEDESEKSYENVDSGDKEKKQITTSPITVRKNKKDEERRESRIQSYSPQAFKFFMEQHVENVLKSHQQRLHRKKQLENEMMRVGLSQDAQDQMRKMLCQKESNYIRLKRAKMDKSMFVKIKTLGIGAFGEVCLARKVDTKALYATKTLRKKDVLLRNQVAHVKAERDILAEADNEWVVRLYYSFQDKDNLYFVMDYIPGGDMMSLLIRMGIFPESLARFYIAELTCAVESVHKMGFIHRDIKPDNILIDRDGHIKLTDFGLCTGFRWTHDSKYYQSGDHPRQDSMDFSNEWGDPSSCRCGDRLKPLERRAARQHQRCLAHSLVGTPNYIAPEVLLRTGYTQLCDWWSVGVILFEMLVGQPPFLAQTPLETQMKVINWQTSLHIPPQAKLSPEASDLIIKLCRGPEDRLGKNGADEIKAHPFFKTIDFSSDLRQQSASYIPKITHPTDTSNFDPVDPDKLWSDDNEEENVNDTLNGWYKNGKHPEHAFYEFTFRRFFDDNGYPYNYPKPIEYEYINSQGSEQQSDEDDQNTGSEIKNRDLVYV
Experimental: as §1, §2

EGFR(L861Q) = biological target: T5, EGFR(L861Q) (Homo sapiens, UniProt P00533, L861Q); conditions: for % Competition: 10 µM
T5 construct: purchased Ambit Biosciences (KINOMEscan)
Experimental: as §1, §2

FRK = biological target: T6, FRK (Homo sapiens, UniProt P42685)
T6 construct: purchased Ambit Biosciences (KINOMEscan)
Experimental: as §1, §2

ADCK3 = biological target: T7, ADCK3 (Homo sapiens, UniProt Q8NI60)
T7 construct: purchased Ambit Biosciences (KINOMEscan)
Experimental: as §1, §2

CIT = biological target: T8, CIT (Homo sapiens, UniProt O14578); conditions: for % Competition: 10 µM
T8 construct: purchased Ambit Biosciences (KINOMEscan)
Experimental: as §1, §2

T8 sequence (O14578 whole entry): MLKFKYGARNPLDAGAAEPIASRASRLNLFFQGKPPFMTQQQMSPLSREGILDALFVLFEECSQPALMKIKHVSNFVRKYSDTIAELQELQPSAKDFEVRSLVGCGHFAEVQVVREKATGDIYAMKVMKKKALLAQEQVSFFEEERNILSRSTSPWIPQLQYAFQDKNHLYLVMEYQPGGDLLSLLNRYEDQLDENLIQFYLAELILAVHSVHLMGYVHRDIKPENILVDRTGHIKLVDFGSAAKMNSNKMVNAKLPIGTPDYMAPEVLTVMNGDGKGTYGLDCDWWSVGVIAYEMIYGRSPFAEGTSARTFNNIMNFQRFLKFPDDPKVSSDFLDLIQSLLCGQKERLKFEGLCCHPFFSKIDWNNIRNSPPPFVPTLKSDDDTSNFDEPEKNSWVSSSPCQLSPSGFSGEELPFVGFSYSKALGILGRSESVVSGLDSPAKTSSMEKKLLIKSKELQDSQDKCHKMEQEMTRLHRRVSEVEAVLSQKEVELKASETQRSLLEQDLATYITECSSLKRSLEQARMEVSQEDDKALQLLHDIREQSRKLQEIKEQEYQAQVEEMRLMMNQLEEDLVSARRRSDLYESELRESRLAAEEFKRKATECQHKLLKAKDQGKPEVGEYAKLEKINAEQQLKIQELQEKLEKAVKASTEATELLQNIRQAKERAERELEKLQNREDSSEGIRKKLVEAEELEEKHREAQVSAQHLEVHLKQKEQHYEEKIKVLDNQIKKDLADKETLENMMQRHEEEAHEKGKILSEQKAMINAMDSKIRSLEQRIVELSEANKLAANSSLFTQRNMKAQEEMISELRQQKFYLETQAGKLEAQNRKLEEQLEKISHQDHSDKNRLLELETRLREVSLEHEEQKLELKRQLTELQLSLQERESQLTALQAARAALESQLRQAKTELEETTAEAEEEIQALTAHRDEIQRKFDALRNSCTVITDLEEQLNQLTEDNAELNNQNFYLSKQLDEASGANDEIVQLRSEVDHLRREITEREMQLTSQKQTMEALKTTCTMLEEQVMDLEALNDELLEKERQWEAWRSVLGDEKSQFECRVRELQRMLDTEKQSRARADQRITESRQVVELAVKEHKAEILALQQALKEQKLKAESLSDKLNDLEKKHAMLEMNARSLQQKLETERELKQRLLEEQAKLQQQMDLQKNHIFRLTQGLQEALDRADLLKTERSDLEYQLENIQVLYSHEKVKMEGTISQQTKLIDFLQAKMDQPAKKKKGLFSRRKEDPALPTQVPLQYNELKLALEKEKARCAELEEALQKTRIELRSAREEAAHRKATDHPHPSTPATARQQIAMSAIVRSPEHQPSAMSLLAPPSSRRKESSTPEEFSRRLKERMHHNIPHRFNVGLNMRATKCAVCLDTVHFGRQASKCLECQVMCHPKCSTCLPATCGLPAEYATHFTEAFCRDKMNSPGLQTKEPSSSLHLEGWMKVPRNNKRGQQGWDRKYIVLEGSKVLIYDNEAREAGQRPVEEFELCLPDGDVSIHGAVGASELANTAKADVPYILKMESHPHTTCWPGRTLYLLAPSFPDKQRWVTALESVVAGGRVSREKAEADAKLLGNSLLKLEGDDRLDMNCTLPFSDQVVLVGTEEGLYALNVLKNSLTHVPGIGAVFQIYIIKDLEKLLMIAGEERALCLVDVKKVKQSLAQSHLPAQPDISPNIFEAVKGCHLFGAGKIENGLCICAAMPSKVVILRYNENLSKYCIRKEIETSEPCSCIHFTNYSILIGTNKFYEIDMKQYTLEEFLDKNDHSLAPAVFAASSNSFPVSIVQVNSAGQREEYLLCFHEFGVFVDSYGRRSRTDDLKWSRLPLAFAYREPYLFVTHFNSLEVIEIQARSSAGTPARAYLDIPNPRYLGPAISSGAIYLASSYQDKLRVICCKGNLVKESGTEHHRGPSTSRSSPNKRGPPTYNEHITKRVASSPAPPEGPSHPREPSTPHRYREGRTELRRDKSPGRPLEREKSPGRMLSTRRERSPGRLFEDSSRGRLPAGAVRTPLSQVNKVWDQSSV
T6 sequence (P42685 whole entry): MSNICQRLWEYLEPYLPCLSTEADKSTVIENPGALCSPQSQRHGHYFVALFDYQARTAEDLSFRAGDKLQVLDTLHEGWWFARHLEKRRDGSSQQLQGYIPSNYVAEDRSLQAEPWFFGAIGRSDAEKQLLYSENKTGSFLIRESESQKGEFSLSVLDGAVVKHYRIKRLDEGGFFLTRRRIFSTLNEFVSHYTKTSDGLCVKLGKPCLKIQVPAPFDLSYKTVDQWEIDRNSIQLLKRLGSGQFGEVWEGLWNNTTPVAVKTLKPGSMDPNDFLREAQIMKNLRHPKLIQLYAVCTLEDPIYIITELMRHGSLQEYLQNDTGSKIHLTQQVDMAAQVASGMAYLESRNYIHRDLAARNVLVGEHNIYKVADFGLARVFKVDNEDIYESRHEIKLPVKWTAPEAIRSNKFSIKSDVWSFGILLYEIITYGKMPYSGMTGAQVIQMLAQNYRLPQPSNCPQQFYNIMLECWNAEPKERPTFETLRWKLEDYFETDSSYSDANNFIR
T7 sequence (Q8NI60 163-647): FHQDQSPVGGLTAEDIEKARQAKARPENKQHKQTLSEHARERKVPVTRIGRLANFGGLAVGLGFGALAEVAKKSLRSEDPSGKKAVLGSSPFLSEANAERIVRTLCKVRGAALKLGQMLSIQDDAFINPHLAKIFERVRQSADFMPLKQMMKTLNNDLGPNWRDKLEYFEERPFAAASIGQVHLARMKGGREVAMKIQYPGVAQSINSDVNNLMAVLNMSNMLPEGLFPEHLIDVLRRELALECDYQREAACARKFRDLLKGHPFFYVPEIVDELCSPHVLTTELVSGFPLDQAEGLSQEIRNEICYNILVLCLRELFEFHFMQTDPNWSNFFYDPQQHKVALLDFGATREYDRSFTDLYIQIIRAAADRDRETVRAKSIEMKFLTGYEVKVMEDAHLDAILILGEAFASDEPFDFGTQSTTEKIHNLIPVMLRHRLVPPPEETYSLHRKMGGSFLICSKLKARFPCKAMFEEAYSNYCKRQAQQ
T1 sequence (Q04759 whole entry): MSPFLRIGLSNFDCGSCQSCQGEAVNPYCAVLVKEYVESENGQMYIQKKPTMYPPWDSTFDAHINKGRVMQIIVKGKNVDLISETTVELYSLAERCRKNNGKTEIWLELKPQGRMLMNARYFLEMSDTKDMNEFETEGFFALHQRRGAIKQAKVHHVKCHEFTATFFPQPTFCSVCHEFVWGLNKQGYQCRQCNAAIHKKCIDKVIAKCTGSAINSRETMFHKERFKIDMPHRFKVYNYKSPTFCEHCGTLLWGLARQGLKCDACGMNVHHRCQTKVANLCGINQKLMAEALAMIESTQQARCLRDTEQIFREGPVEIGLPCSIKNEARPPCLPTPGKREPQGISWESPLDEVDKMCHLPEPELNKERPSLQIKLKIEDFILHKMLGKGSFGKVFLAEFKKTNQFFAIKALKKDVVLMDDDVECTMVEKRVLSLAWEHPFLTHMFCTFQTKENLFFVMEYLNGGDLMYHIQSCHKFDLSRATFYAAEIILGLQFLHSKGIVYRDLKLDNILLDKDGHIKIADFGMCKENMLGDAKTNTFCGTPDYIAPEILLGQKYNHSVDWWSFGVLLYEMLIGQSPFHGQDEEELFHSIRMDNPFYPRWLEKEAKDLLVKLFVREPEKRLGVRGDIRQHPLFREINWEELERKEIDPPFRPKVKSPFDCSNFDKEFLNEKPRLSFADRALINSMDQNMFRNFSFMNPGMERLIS

- inhibition at 10 µM (PRKCQ; PRKCQ, compound concentration 10 uM, read-out: Percent Competition): 78%
- inhibition at 10 µM (MEK6; MEK6, compound concentration 10 uM, read-out: Percent Competition): 66%
- inhibition at 10 µM (p38-gamma; compound concentration 10 uM, read-out: Percent Competition): 90%
- inhibition at 10 µM (LATS1; LATS1, compound concentration 10 uM, read-out: Percent Competition): 68%
- Percent Competition (EGFR(L861Q); compound concentration 10 uM): 97%
- inhibition at 10 µM (FRK; FRK, compound concentration 10 uM, read-out: Percent Competition): 85%
- inhibition at 10 µM (ADCK3; ADCK3, compound concentration 10 uM, read-out: Percent Competition): 83%
- Percent Competition (CIT; compound concentration 10 uM): 99%
Structure (SMILES): Fc1ccc(-c2c(-c3ccncc3)[nH]c3nccnc23)cc1 [RO1155697-000-005]

- inhibition at 10 µM (PRKCQ; PRKCQ (PKC θ), 10 µM, read-out: % Competition): 78%
- inhibition at 10 µM (MEK6; MEK6, 10 µM, read-out: % Competition): 66%
- inhibition at 10 µM (p38-gamma; 10 µM, read-out: % Competition): 90%
- inhibition at 10 µM (LATS1; LATS1, 10 µM, read-out: % Competition): 68%
- % Competition (EGFR(L861Q)): 97%
- inhibition at 10 µM (FRK; FRK, 10 µM, read-out: % Competition): 85%
- inhibition at 10 µM (ADCK3; ADCK3, 10 µM, read-out: % Competition): 83%
- % Competition (CIT): 99%
Structure (SMILES): Fc1ccc(-c2c(-c3ccncc3)[nH]c3nccnc23)cc1 [Compound 122]

Structure (SMILES): CC(O)CNc1cc(-c2[nH]c3cccnc3c2-c2ccc(F)cc2)ccn1 (stereo not shown) [Compound 140]
- % Competition (PRKCQ; PRKCQ (PKC θ), 10 µM): <50%
- inhibition at 10 µM (PRKCQ; read-out: % Competition): < 50%
- inhibition at 10 µM (MEK6; read-out: % Competition): < 50%
- % Competition (p38-gamma; 10 µM): <50%
- inhibition at 10 µM (LATS1; read-out: % Competition): < 50%
- % Competition (EGFR(L861Q)): 87%
- inhibition at 10 µM (FRK; read-out: % Competition): < 50%
- inhibition at 10 µM (ADCK3; read-out: % Competition): 90%
- % Competition (CIT): 99%

— article PMC3445516 (PLoS ONE, 2012)
